One data set concerns MIB-1/Ki67. In words: Immunohistochemistry of proliferation marker MIB-1/Ki67 in Hep-3B tumor of treated mice. The data set is classed as in vivo, athymic nude-Foxn1nu mice. The following applies: DMFAT-PTX at both dosages; free PTX 10 mg/kg. How it is done:
After evaluation of conventional H&E stained, ten white sections were then obtained from each sample to be processed for immunohistochemical (IHC) staining. IHC was carried out automatically by means of Leica Bond MaxTM technology (Arginase, CK-PAN, CK7 and ANTI-EPATO) and Ventana Bench Mark Ultra (Ki-67): ANTI-HEPATO: antigen retrieval 30' EDTA, (dil. 1:300 clone […] Dako-Agilent); […] antigen retrieval 30' EDTA, (dil. 1:100 Clone SP156 Cell Marque […]. clone 30-9 Roche-Ventana); CK-PAN: antigen retrieval 5' Enzyma, (dil. 1:200 clone MNF116 Dako Agilent); CK-7: antigen retrieval 15' EDTA, dil. 1:100 clone OV-TL 12/20 Dako Agilent. All section stained was evaluated on NIKON ECLIPSE E 600 Microscopy equipped with OLYMPUS DP21 Camera.

Another data set relates to Hep-3B cells. Description: PTX anti-proliferative activity on Hep-3B cells in culture. The data set is classed as cell-based, human. How it is done: In (A) PTX at different concentration from 0.1 to 1000 ng/ml was added to cultured Hep-3B cells After 72 hours of incubation cells were detached and counted. […] In (B) photographs (10× magnification) of Hep-3B cultured in presence of PTX showing its potent growth inhibition at concentration up to 25 ng/ml are reported.
To this end, different concentration of PTX (from 0.1 ng/ml to 1000 ng/ml) were added to culture medium.

The next data set deals with Hep-3B tumor. Description: In vivo anti-tumor activity, single-shot local injection next to sc Hep-3B tumor.

In brackets after ≈: the same amount, converted by molar mass. Where two headings read alike, the source gives them in different places.

As usually defined, the IC50 is the midpoint of a concentration-inhibition curve. A word on the IC90: it is the point of the concentration-response curve where the effect stands at 90%.

Take `CC(=O)O[C@H]1C(=O)[C@@]2(C)[C@H]([C@H](OC(=O)c3ccccc3)[C@]3(O)C[C@H](OC(=O)[C@H](O)[C@@H](NC(=O)c4ccccc4)c4ccccc4)C(C)=C1C3(C)C)[C@]1(OC(C)=O)CO[C@@H]1C[C@@H]2O` [PTX, Paclitaxel]: the “Ki67 expression in tumor” value with MIB-1/Ki67 is “Some reduction”. The “IC50, dose of PTX required to reduce 50% Hep-3B growth” value with Hep-3B cells (72 hours of incubation, cells detached and counted) was found to be 0.015 ± 0.003 µg/mL. Also, the IC50 came to 0.015 ± 0.002 µg/mL (≈ 0.0176 µM) with Hep-3B cells (Homo sapiens, Hep3B, read-out: IC50, dose of PTX required to reduce 50% Hep-3B growth, 72 hours of incubation, cells detached and counted); 0.015 µg/mL (≈ 0.0176 µM) in the data set with Hep-3B cells (Homo sapiens, Hep3B, restated for comparison with tissue concentrations, read-out: IC50 of the PTX on Hep-3B cells). For the same compound, the IC90 in the data set on Hep-3B cells (Homo sapiens, Hep3B, read-out: IC90, dose of PTX required to reduce 90% Hep-3B growth, 72 hours of incubation, cells detached and counted) came out at 0.025 ± 0.008 µg/mL (≈ 0.0293 µM). For the same compound, the “Skin lesions / ulceration at the site of injection” value with Hep-3B tumor (10 mg/kg (200 μg/200 μl), local sc injection) was “did not induce skin ulcers”. The “Effect on tumor growth compared to CTRL” value in the data set on Hep-3B tumor (series A: 200 μl, PTX 10 mg/kg where present) is given as “No significant effect”. Further, the “% of mice cured” value in the data set with Hep-3B tumor (series A: PTX 200 μg (10 mg/kg) where present, tumor-free after 90 days) was 0%. For the same compound, in the data set on Hep-3B tumor (series A: single shot 200 μl, PTX 200 μg (10 mg/kg) where present), the Day of sacrifice amounted to 33 ± 3. In the data set with Hep-3B tumor (series A: single shot 200 μl, PTX 200 μg (10 mg/kg) where present, at 60 days), the “% of mice tumor-free” value is on record as 0%. Moreover, the “HCC (TW) (Grams ± SD)” value with Hep-3B tumor (series A: single shot 200 μl, PTX 200 μg (10 mg/kg) where present, tumor weight at sacrifice) is 2.010 ± 0.377 Grams.

These data come from patent US20240415972A1, “MICROFRAGMENTED FAT TISSUE AS DRUG DELIVERY SYSTEM IN LIVER CANCER THERAPY” (LIPOGEMS INTERNATIONAL S.P.A., priority 2021, published 2024).
